# According to patent US12497663B2, “Method of monitoring treatment” (LDN Pharma Limited, priority 2019, dated 2025):
# Test system: CD3+ cells
# Test: Gene expression in CD3+ cells from CD14-ve PBMCs cultured with naltrexone (Illumina biochips)
# Format: cell-based, human
# Settings: 4 h
# Protocol: The RNA was then extracted from the cells using Trizol then isopropanol. The expression of the genes was measured using Illumina platform with biochips surveying the total human genome. […] The ratio of treated:untreated was calculated and the 25% change from untreated considered relevant.
structure (smiles),measurement,setting,value
"O=C1CC[C@@]2(O)[C@H]3Cc4ccc(O)c5c4[C@@]2(CCN3CC2CC2)[C@H]1O5 [NTX, morphinan-6-one,17-(cyclopropylmethyl)-4,5-epoxy-3,14-dihydroxy-(5a)]",number of genes upregulated by LDN but unchanged by NTX,"10 nM LDN vs 10 uM NTX, 19,571 genes called present, 25% change relevant",223 genes
same,"ACTB expression, LDN",10 nM naltrexone (LDN),156
same,"ALDH4A1 expression, LDN",10 nM naltrexone (LDN),135
same,"ASAP1 expression, LDN",10 nM naltrexone (LDN),97
same,"BCLAF1 expression, LDN",10 nM naltrexone (LDN),130
same,"BIRC3 expression, LDN",10 nM naltrexone (LDN),173
same,"CASZ1 expression, LDN",10 nM naltrexone (LDN),167
same,"CDC42SE2 expression, LDN",10 nM naltrexone (LDN),119
same,"CDKN2AIP expression, LDN",10 nM naltrexone (LDN),93
same,"DRAP1 expression, LDN",10 nM naltrexone (LDN),309
same,"DYNLL2 expression, LDN",10 nM naltrexone (LDN),93
same,"EIF2S3 expression, LDN",10 nM naltrexone (LDN),135
same,"EIF3E expression, LDN",10 nM naltrexone (LDN),427
same,"EIF4B expression, LDN",10 nM naltrexone (LDN),594
same,"EZR expression, LDN",10 nM naltrexone (LDN),1218
same,"FRG1 expression, LDN",10 nM naltrexone (LDN),99
same,"H3F3A expression, LDN",10 nM naltrexone (LDN),616
same,"HIST1H4C expression, LDN",10 nM naltrexone (LDN),1093
same,"HPCAL1 expression, LDN",10 nM naltrexone (LDN),491
same,"ITGB2 expression, LDN",10 nM naltrexone (LDN),719
same,"KCTD6 expression, LDN",10 nM naltrexone (LDN),105
same,"LSM5 expression, LDN",10 nM naltrexone (LDN),166
same,"MAP4K1 expression, LDN",10 nM naltrexone (LDN),475
same,"MORF4L1 expression, LDN",10 nM naltrexone (LDN),135
same,"MTF1 expression, LDN",10 nM naltrexone (LDN),84
same,"MYLK expression, LDN",10 nM naltrexone (LDN),166
same,"NUCB1 expression, LDN",10 nM naltrexone (LDN),436
same,"OR10A6 expression, LDN",10 nM naltrexone (LDN),152
same,"PAH expression, LDN",10 nM naltrexone (LDN),135
same,"PDCD4 expression, LDN",10 nM naltrexone (LDN),83
same,"PECI expression, LDN",10 nM naltrexone (LDN),85
same,"PRPF8 expression, LDN",10 nM naltrexone (LDN),464
same,"PSME2 expression, LDN",10 nM naltrexone (LDN),144
same,"PVRL2 expression, LDN",10 nM naltrexone (LDN),151
same,"RASAL3 expression, LDN",10 nM naltrexone (LDN),356
same,"S100A6 expression, LDN",10 nM naltrexone (LDN),240
same,"SH3BGRL3 expression, LDN",10 nM naltrexone (LDN),327
same,"SPOCK2 expression, LDN",10 nM naltrexone (LDN),1322
same,"WDR75 expression, LDN",10 nM naltrexone (LDN),81
same,"YWHAZ expression, LDN",10 nM naltrexone (LDN),809
same,ACTB L/U-score,10 nM naltrexone,U (increase)
same,ALDH4A1 L/U-score,10 nM naltrexone,U (increase)
same,ASAP1 L/U-score,10 nM naltrexone,D (reduction)
same,BCLAF1 L/U-score,10 nM naltrexone,D (reduction)
same,BIRC3 L/U-score,10 nM naltrexone,D (reduction)
same,CASZ1 L/U-score,10 nM naltrexone,U (increase)
same,CDC42SE2 L/U-score,10 nM naltrexone,D (reduction)
same,CDKN2AIP L/U-score,10 nM naltrexone,D (reduction)
same,DRAP1 L/U-score,10 nM naltrexone,U (increase)
same,DYNLL2 L/U-score,10 nM naltrexone,D (reduction)
same,EIF2S3 L/U-score,10 nM naltrexone,D (reduction)
same,EIF3E L/U-score,10 nM naltrexone,D (reduction)
same,EIF3M L/U-score,10 nM naltrexone,D (reduction)
same,EIF4B L/U-score,10 nM naltrexone,U (increase)
same,EZR L/U-score,10 nM naltrexone,U (increase)
same,FRG1 L/U-score,10 nM naltrexone,D (reduction)
same,H3F3A L/U-score,10 nM naltrexone,D (reduction)
same,HIST1H4C L/U-score,10 nM naltrexone,D (reduction)
same,HPCAL1 L/U-score,10 nM naltrexone,U (increase)
same,ITGB2 L/U-score,10 nM naltrexone,U (increase)
same,KCTD6 L/U-score,10 nM naltrexone,D (reduction)
same,LSM5 L/U-score,10 nM naltrexone,D (reduction)
same,MAP4K1 L/U-score,10 nM naltrexone,U (increase)
same,MORF4L1 L/U-score,10 nM naltrexone,D (reduction)
same,MTF1 L/U-score,10 nM naltrexone,D (reduction)
same,MYLK L/U-score,10 nM naltrexone,U (increase)
same,NUCB1 L/U-score,10 nM naltrexone,U (increase)
same,OR10A6 L/U-score,10 nM naltrexone,U (increase)
same,PAH L/U-score,10 nM naltrexone,U (increase)
same,PDCD4 L/U-score,10 nM naltrexone,D (reduction)
same,PECI L/U-score,10 nM naltrexone,D (reduction)
same,PRPF8 L/U-score,10 nM naltrexone,U (increase)
same,PSME2 L/U-score,10 nM naltrexone,D (reduction)
same,PVRL2 L/U-score,10 nM naltrexone,U (increase)
same,RASAL3 L/U-score,10 nM naltrexone,U (increase)
same,S100A6 L/U-score,10 nM naltrexone,U (increase)
same,SH3BGRL3 L/U-score,10 nM naltrexone,U (increase)
same,SPOCK2 L/U-score,10 nM naltrexone,U (increase)
same,WDR75 L/U-score,10 nM naltrexone,D (reduction)
same,YWHAZ L/U-score,10 nM naltrexone,U (increase)
same,"ACTB expression, NTX",10 uM naltrexone (NTX),124
same,"ALDH4A1 expression, NTX",10 uM naltrexone (NTX),95
same,"ASAP1 expression, NTX",10 uM naltrexone (NTX),114
same,"BCLAF1 expression, NTX",10 uM naltrexone (NTX),159
same,"BIRC3 expression, NTX",10 uM naltrexone (NTX),226
same,"CASZ1 expression, NTX",10 uM naltrexone (NTX),107
same,"CDC42SE2 expression, NTX",10 uM naltrexone (NTX),161
same,"CDKN2AIP expression, NTX",10 uM naltrexone (NTX),101
same,"DRAP1 expression, NTX",10 uM naltrexone (NTX),178
same,"DYNLL2 expression, NTX",10 uM naltrexone (NTX),115
same,"EIF2S3 expression, NTX",10 uM naltrexone (NTX),146
same,"EIF3E expression, NTX",10 uM naltrexone (NTX),601
same,"EIF3M expression, NTX",10 uM naltrexone (NTX),131
same,"EIF4B expression, NTX",10 uM naltrexone (NTX),423
same,"EZR expression, NTX",10 uM naltrexone (NTX),841
same,"FRG1 expression, NTX",10 uM naltrexone (NTX),124
same,"H3F3A expression, NTX",10 uM naltrexone (NTX),739
same,"HIST1H4C expression, NTX",10 uM naltrexone (NTX),1370
same,"HPCAL1 expression, NTX",10 uM naltrexone (NTX),275
same,"ITGB2 expression, NTX",10 uM naltrexone (NTX),443
same,"KCTD6 expression, NTX",10 uM naltrexone (NTX),116
same,"LSM5 expression, NTX",10 uM naltrexone (NTX),218
same,"MAP4K1 expression, NTX",10 uM naltrexone (NTX),267
same,"MORF4L1 expression, NTX",10 uM naltrexone (NTX),149
same,"MTF1 expression, NTX",10 uM naltrexone (NTX),95
same,"MYLK expression, NTX",10 uM naltrexone (NTX),124
same,"NUCB1 expression, NTX",10 uM naltrexone (NTX),337
same,"OR10A6 expression, NTX",10 uM naltrexone (NTX),120
same,"PAH expression, NTX",10 uM naltrexone (NTX),95
same,"PDCD4 expression, NTX",10 uM naltrexone (NTX),96
same,"PECI expression, NTX",10 uM naltrexone (NTX),131
same,"PRPF8 expression, NTX",10 uM naltrexone (NTX),353
same,"PSME2 expression, NTX",10 uM naltrexone (NTX),180
same,"PVRL2 expression, NTX",10 uM naltrexone (NTX),113
same,"RASAL3 expression, NTX",10 uM naltrexone (NTX),186
same,"S100A6 expression, NTX",10 uM naltrexone (NTX),112
same,"SH3BGRL3 expression, NTX",10 uM naltrexone (NTX),271
same,"WDR75 expression, NTX",10 uM naltrexone (NTX),95
same,"YWHAZ expression, NTX",10 uM naltrexone (NTX),462
same,ACTB N/U-score,10 uM naltrexone,o (no change)
